# Data as given in patent US5216183A, “Cyclopentanone/cyclopentenone derivative” (Teijin Limited, priority 1988, dated 1993).
# Key:
# human osteoblasts = settings: Koshihara et al., Biochemical Society of Japan (Preprints, 1988, p.767); cited from earlier work
# [1] = test system: human osteoblast (SAM-1, 12PDL); assay: Determination (1) of bone formation activity (SAM-1, 25 days); type: cell-based; settings: Table 38; for Ca per DNA: control 0.386 ± 0.245; for ALP per DNA: control 1.148 ± 0.050; for P per DNA: control 1.528 ± 0.316
# Procedure: Human osteoblast (SAM-1, 12PDL) was cultured in α-MEM containing 10% fetal bovine serum, and when a stable growth was attained, a predetermined concentration of the compound was added in the presence of 2 mM α-glycerophosphoric acid salt, followed by treatment for 25 days. The cell layer was washed with Hank's solution and the alkali phosphatase activity then measured by absorption at OD410. Next, calcium and phosphorus were extracted with a 5% perchloric acid solution and quantitated, and DNA was extracted with 5% perchloric acid at 90° C., and the weight thereof quantitated. These evaluations were conducted according to the methods of Koshihara et al (Biochemical and Biophysical Research Communication Vol 145, No. 2, 1987, p. 651).
# L1210 cancer cells = assay: Evaluation of antitumor activity (L1210 growth, 4 days, trypan blue); type: cell-based; settings: Mus musculus, 96 h, Table 37, L1210, 1×10^5 cells/ml
# Procedure: Cancer cells were grown in an RPMI 1640 culture medium containing 10% of fetal calf serum.
# The compound to be tested was dissolved in 99.5% ethanol and was added to the medium so that the final concentration of the ethanol was 0.1% or less. As a control, 0.1% ethanol was used. L1210 cancer cells were inoculated at a concentration of 1×10^5 cells/ml in the medium and were grown for 4 days. The number of live cells was determined by trypan blue staining.
smiles,measurement,setting,value
CCCCC[C@H](O)/C=C/[C@H]1C(=O)C[C@H](O)[C@@H]1C/C=C\CCCC(=O)O [prostaglandin D2],calcification by human osteoblasts,human osteoblasts,accelerated
"CSC1=CC(O)(CCCCOc2ccccc2)/C(=C/C=C/C(O)CCCO)C1=O (stereo not drawn) [drawing 1105, 2-methylthio-5-[( -- Z)-4,7-dihydroxy-2-heptenylidene]-4-(4-phenoxybutyl)-4-hydroxy-2-cyclopentenone]",Ca per DNA,[1]; 10^-6 M,29.410 μg/μg DNA
same,ALP per DNA,[1]; 10^-6 M,1.447 OD 410 nm/μg DNA
same,P per DNA,[1]; 10^-6 M,5.743 ± 0.630 μg/μg DNA
same,Ca per DNA,[1]; 10^-7 M,8.847 ± 1.485 μg/μg DNA
same,ALP per DNA,[1]; 10^-7 M,0.333 ± 0.039 OD 410 nm/μg DNA
same,P per DNA,[1]; 10^-7 M,5.270 ± 0.144 μg/μg DNA
"CSC1=CC(=CCCCOc2ccccc2)/C(=C/C=C/C(O)CCCO)C1=O (stereo not drawn) [drawing 1103, 2-methylthio-5-[( -- Z)-4,7-dihydroxy-2-eptenylidene]-4-(4-phenoxybutylidene)-2-cyclopentenone]",IC50,L1210 cancer cells,3.5 µg/mL
"CCCCCC(O)C=CC1C=C(SC)C(=O)C1=CCCCCCC(=O)OC (stereo not drawn) [drawing 1097, 2-methylthio-5-(6-methoxycarbonyl-hexylidene)-4-(3-hydroxy-1-octenyl)-2-cyclopentenone]",IC50,L1210 cancer cells,5 µg/mL
